Experimental findings from PubChem BioAssay AID179 (DTP/NCI, 2004) are described below.

Structures are written as SMILES. Active and inactive are the calls of the source.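 The calls were made as follows: active = compounds giving half or more protection of infected cells from virus-caused growth loss, again on retest; inactive = the rest.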

The test system of the assay is CEM cells HIV-1 protection, formazan growth assay. In words: NCI AIDS Antiviral Assay. The following applies: for IC50: measured here: growth of uninfected CEM cells. The gist of the method: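 Human CEM cells, uninfected and HIV-1-infected, exposed to five drug concentrations; growth measured by soluble formazan assay and scored as percent protection from infection, with protecting compounds retested.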

As a reminder, the EC50 is the concentration needed to bring the measured effect to its halfway point. By IC50 is commonly meant the concentration that gives 50% inhibition. Low readings indicate higher potency, high ones lower potency. For `COc1cc2c(c3oc(=O)cc(C)c13)C(=O)[C@H](C)[C@@H](C)O2`, the EC50 is greater than 200 µM and the IC50 came out at 126 µM. Taken in the same sequence, the figures for `CCOC(=O)NC(C(F)(F)F)(C(F)(F)F)P(=O)(OC(C)C)OC(C)C` were greater than 200 µM and greater than 200 µM. Turning to `CN(C)c1ncnc2c1ncn2C1OC(CO)C2NP(=O)(N(CCCl)CCCl)OC21` (stereo not drawn), the EC50 was greater than 200 µM and the half-maximal inhibitory concentration (IC50) was greater than 200 µM. In the case of `N.N.N.N.[Co+3].[N-]=[N+]=[N-].[N-]=[N+]=[N-].[N-]=[N+]=[N-]`, the result was inactive. On the same count and under the same terms, the value for `CCN1C[C@]2(COC)CCC(O)C34[C@@H]5C[C@@H]6C(OC(C)=O)[C@@H]5[C@](OC(C)=O)(C[C@@H]6OC)[C@@H](C(OC)[C@@H]32)[C@H]14` (stereo partly drawn) was “inactive”; that for `O=C(c1ccccc1)N1OCCC1Nc1ccc(Br)cc1` (stereo not drawn) was “inactive”. `CCCCn1c(C)c2c(c1C)C(=O)N(CCN1CCN(c3ccccc3Cl)CC1)C2=O`: the EC50 is greater than 200 µM and the half-maximal inhibitory concentration (IC50) was greater than 200 µM. `CNN1C(=O)c2c(N)c(C#N)c(-c3ccccc3)c(-c3ccccc3)c2C1=O`: the EC50 is 16.2 µM and the IC50 came out at 174 µM. Taken in the same sequence, the figures for `Cc1cc(C)nc(NS(=O)(=O)c2ccc(Nc3c4ccccc4nc4c(C(=O)Nc5ccc(S(=O)(=O)N=C(N)N)cc5)ccc(Cl)c34)cc2)n1` were greater than 93.3 µM and 69.2 µM. For `COc1ccc(N2C(=O)C(=O)N(C)C2=O)c2ccccc12`, the result was inactive. Turning to `C[C@]12CC[C@H](OC(=O)Cc3ccc(N(CCCl)CCCl)cc3)CC1CC[C@@H]1C2CC[C@]2(C)NC(=O)CCC12` (stereo partly drawn), the EC50 was greater than 17.8 µM and the half-maximal inhibitory concentration (IC50) worked out at 2.95 µM. Taken in the same sequence, the figures for `CCc1noc(N)c1C#N` were greater than 200 µM and 182 µM. For `CCCCCCCCCCCCCCCCC(C(=O)O)S(=O)(=O)O` (stereo not drawn) the same measures were greater than 200 µM and 112 µM. On to `COC(=O)[C@@H]1Cc2c3n(c4ccccc24)C(=O)CCC3N1C` (stereo partly drawn), for which the EC50 was greater than 417 µM and the IC50 is 295 µM. Turning to `C/C(Sc1ccccc1)=C1/CCCN(Cc2ccccc2)C1`, the EC50 was greater than 200 µM and the IC50 worked out at 74.1 µM. As for `O=C(NCc1cccnc1)C1COc2cc(-c3cc(=O)c4ccccc4o3)ccc2O1` (stereo not drawn), the outcome was inactive.

Turning to `COc1c(C)cc(C(=O)c2cc(C)c(OC)c(Br)c2)cc1Br`, the EC50 is greater than 100 µM and the half-maximal inhibitory concentration (IC50) was determined as 95.5 µM. In the case of `C/C(=N\Nc1ccc([N+](=O)[O-])cc1[N+](=O)[O-])c1ccc2ccccc2n1`, the EC50 was 182 µM and the concentration for half-maximal inhibition (IC50) was greater than 200 µM. `O=C(Nc1cccc2ccccc12)Oc1ccccc1C1CCCCC1`: the result was inactive. Turning to `CC(=O)Oc1ccn2nc(C)c(Br)c2c1Br`, the EC50 is greater than 200 µM and the half-inhibitory concentration (IC50) came to 36.3 µM.

In the case of `O=C(S)C(=O)Cc1nnn(-c2ccccc2)c1-c1ccccc1`, the EC50 was greater than 245 µM and the IC50 is greater than 245 µM. For `O=NNc1ccc(-c2ccccc2)cn1`, the EC50 is greater than 200 µM and the half-maximal inhibitory concentration (IC50) was found to be 43.7 µM. On to `C=CCNC(=S)OCCCCCCCCCC`, for which the result was inactive. Turning to `O=C1CCCC1C(O)(C(F)(F)F)C(F)(F)F` (stereo not drawn), the EC50 was greater than 200 µM and the half-maximal inhibitory concentration (IC50) is greater than 200 µM. As for `COC(=O)c1cc(C(=O)OC)c(CC(=O)C(=O)Nc2ccc(Cl)c(C(F)(F)F)c2)nc1CC(=O)C(=O)Nc1ccc(Cl)c(C(F)(F)F)c1`, the EC50 was greater than 200 µM and the IC50 came out at 148 µM.

As to `Cc1ccc(C(=O)Nc2ccc(CP(=O)(O)O)cc2)cc1NC(=O)c1cccc(N)c1`, the EC50 is greater than 200 µM and the half-inhibitory concentration (IC50) is greater than 200 µM.

`C=Cc1ccccn1`: the EC50 was greater than 200 µM and the IC50 is greater than 200 µM. Consider `O=[N+]([O-])c1ccc(CSCc2ccc([N+](=O)[O-])cc2)cc1`, for which the EC50 was greater than 200 µM and the IC50 is greater than 200 µM. With `C=C1CN2CCc3c([nH]c4ccccc34)C2CC1CC(=O)N(C)C` (stereo not drawn), the EC50 is greater than 562 µM and the IC50 amounted to 468 µM. In the case of `NC(=O)C(=O)N/N=C1/c2ccccc2CC1C1(O)C(=O)Nc2c(Cl)cc(Cl)cc21` (stereo not drawn), the EC50 was greater than 12 µM and the IC50 was greater than 12 µM. Take `O=C1C(=C(C(F)(F)Cl)C(F)(F)Cl)C2CCC1C2` (stereo not drawn): the result was inactive. In the case of `CC12CCC(=O)[C@@]1(C)CCCC2=O` (stereo partly drawn), the result was inactive. Consider `CSc1cnnc2ccccc12`, for which the EC50 is greater than 603 µM and the IC50 is 263 µM. With `O=C1C=CC2(C=C1)CCC(=O)O2`, the EC50 is 2.95 µM and the half-maximal inhibitory concentration (IC50) amounted to 158 µM. Consider `Clc1cc(N/N=C(\c2ccccc2)c2ccccn2)ncn1`, for which the EC50 is greater than 0.2 µM and the IC50 was 0.0631 µM. `CCOC(=O)CCC(NC(=O)c1ccc(Nc2nc3cc(C(F)(F)F)ccc3nc2C(=O)OCC)cc1)C(=O)OCC` (stereo not drawn): the EC50 was greater than 191 µM and the IC50 was 4.57 µM.

As for `O=C1Oc2ccccc2CC1C(=O)c1ccc(Cl)cc1` (stereo not drawn), the EC50 was greater than 18.2 µM and the IC50 is greater than 18.2 µM.

`Cc1ccc(C2=C(O)C(=O)C(c3ccc(C)cc3)=C(O)C2=O)cc1`: the EC50 was greater than 52.5 µM and the IC50 was determined as 26.3 µM.

As to `CN(C)CCCNc1ccc([N+](=O)[O-])c2nc3ccccc3c(N)c12`, the EC50 is greater than 200 µM and the half-inhibitory concentration (IC50) was determined as 0.209 µM. For the molecule `CCN(CC)CC(=N)N(CC)c1ccccc1`, the EC50 was greater than 417 µM and the 50% inhibitory concentration (IC50) came out at 195 µM. Regarding `C[CH2][Sn]([Cl])([Cl])[CH2]C`, the result was inactive. For `O=C(Nc1ccc(S(=O)(=O)N[C@@H](C(=O)O)c2ccccc2)cc1)c1ccc(F)cc1`, the result was inactive.

Take `COC1CCC(=O)N1CN(C(C)=O)c1ccc(C)cc1` (stereo not drawn): the result was inactive. Take `C/C=C\CCC1CCCCN(C(=O)OC(C)(C)C)C1OCC` (stereo not drawn): the EC50 is greater than 158 µM and the IC50 was greater than 158 µM. On to `O=C(O)CCSSCCCCCS(=O)O`, for which the EC50 was greater than 200 µM and the 50% inhibitory concentration (IC50) is 24 µM. Consider `CC(C)(C)OC(=O)Cn1ncn(NC(=O)Cc2ccccc2)c1=S`, for which the EC50 is greater than 200 µM and the IC50 was greater than 200 µM.

As for `COc1cc(OC)c2c(=O)c3c([N+](=O)[O-])cccc3n(C)c2c1`, the EC50 is greater than 100 µM and the IC50 was greater than 100 µM. For the molecule `C/C(CC(O)(C(F)(F)Cl)C(F)(F)Cl)=N\Nc1ccccc1`, the EC50 was greater than 200 µM and the IC50 worked out at 52.5 µM. As to `CN(C)CCNC(c1ccccc1)C(O)c1ccccc1` (stereo not drawn), the result was inactive. Take `COc1ccc(/C=N/n2cnc3c(sc(=S)n3-c3ccccc3)c2=O)cc1`: the EC50 is greater than 6.92 µM and the half-inhibitory concentration (IC50) was greater than 6.92 µM.

In the case of `COc1nc2nccnc2c(=O)n1C`, the EC50 was greater than 200 µM and the half-maximal inhibitory concentration (IC50) was greater than 200 µM. Turning to `COC(OC)C(=O)[C@H]1[C@H](C(=O)OCC2OC(n3cc(C)c(=O)[nH]c3=O)CC2N=[N+]=[N-])C[C@H]2[C@@H]3CCC4=CC(=O)C=C[C@]4(C)[C@H]3[C@@H](O)C[C@@]21C` (stereo partly drawn), the EC50 was 0.0331 µM and the IC50 was found to be 13.2 µM.

For the molecule `Cc1cn([C@H]2C[C@H](NC(=O)N(O)C[C@H]3O[C@@H](n4cc(C)c(=O)[nH]c4=O)C[C@@H]3O)[C@@H](CO)O2)c(=O)[nH]c1=O`, the EC50 was greater than 200 µM and the half-maximal inhibitory concentration (IC50) was greater than 200 µM.
